From patent US8362000B2, “Azetidinyl diamides as monoacylglycerol lipase inhibitors” (Janssen Pharmaceutica NV, priority 2009, dated 2013)
Positions count from the first letter of the chain named. Where two headings read alike, the source gives them in different places.

Experiments:
mutant MGL = biological target: T1, mutant MGL (Homo sapiens, UniProt Q99685, L169S/L176S); test: MGL ThermoFluor assay - mutant; type: binding; conditions: read-out: MGL mutant ThermoFluor Kd
T1 sequence (Q99685 1-303 L169S/L176S): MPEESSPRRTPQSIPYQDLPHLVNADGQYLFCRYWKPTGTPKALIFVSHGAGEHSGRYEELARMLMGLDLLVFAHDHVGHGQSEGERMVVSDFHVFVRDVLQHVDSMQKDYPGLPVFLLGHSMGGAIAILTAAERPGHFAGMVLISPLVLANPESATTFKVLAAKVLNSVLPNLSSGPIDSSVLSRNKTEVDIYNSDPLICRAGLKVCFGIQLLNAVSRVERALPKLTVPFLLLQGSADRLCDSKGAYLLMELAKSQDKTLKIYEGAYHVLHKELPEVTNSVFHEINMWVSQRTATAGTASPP

[1] = biological target: T2, purified wild type MGL (wt-MGLL 6H-11-313) (Homo sapiens, UniProt Q99685)
T2 sequence (Q99685 1-303): T1 sequence (Q99685 1-303 L169S/L176S) with S169L, S176L

MGL = biological target: T3, MGL (Rattus norvegicus, UniProt Q8R431); test: 2-AG accumulation assay in rat brain homogenate; type: biochemical; conditions: rat brain homogenate, 2-AG accumulation as percent of vehicle; for 2-AG accumulation, % of vehicle control at 1 µM: compound 1 μM, read-out: Rat Brain 2AG % VehCntrl (%) @ 1 μM; for 2-AG accumulation, % of vehicle control at 0.1 µM: compound 0.1 μM, read-out: Rat Brain 2AG % VehCntrl (%) @ 0.1 μM; for 2-AG accumulation, % of vehicle control at 10 µM: compound 10 μM, read-out: Rat Brain 2AG % VehCntrl (%) @ 10 μM
T3 construct: one g rat brain was homogenized using a Polytron homogenizer; from tissue; host or cells: rat brain homogenate
T3 sequence (Q8R431 1-303): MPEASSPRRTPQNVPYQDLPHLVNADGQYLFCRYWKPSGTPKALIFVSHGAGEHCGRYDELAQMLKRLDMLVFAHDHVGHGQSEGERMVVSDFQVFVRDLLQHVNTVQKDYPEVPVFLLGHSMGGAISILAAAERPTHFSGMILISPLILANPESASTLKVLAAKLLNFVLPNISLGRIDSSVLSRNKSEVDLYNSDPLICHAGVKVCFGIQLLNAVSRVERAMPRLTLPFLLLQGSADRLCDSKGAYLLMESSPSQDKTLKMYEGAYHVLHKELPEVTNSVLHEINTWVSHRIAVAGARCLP

[2] = tested on: CFA-induced paw radiant heat hypersensitivity; test: CFA-induced paw radiant heat hypersensitivity; type: in vivo, rat; conditions: Rattus norvegicus, po, 30 mg/kg p.o., HPβCD, last time point 180 or 300 min
Method: Each rat was placed in a test chamber on a warm glass surface and allowed to acclimate for approximately 10 min. A radiant thermal stimulus (beam of light) was then focused through the glass onto the plantar surface of each hind paw in turn. The thermal stimulus was automatically shut off by a photoelectric relay when the paw was moved or when the cut-off time was reached (20 sec for radiant heat at ˜5 amps). An initial (baseline) response latency to the thermal stimulus was recorded for each animal prior to the injection of complete Freund's adjuvant (CFA). […] Immediately following the post-CFA latency assessment, the indicated test compound or vehicle was administered orally.
The percent reversal (% R) of hypersensitivity was calculated in one of two different ways: 1) using group mean values or 2) using individual animal values. More specifically:
Method 2. For some compounds, the % R of hypersensitivity was calculated separately for each animal according to the following formula: % reversal=[(individual treatment response−individual CFA response)/(individual baseline response−individual CFA response)]×100. Results are given as a mean of the maximum % reversal values calculated for each individual animal.

[3] = ThermoFluor thermal stability binding assay
[4] = group mean values, read-out: CFA thermal hypersensitivity Method 1: peak % reversal
[5] = ThermoFluor concentration-response
[6] = individual animal values, read-out: CFA thermal hypersensitivity Method 2: peak % reversal

Structure (SMILES) | Kd (mutant MGL; [3]) [nM] | IC50 [1] [nM] | 2-AG accumulation, % of vehicle control at 1 µM (MGL) [%] | inhibition in vivo at 30 mg/kg [2, 4] [%] | Kd (mutant MGL; [5]) [nM] | 2-AG accumulation, % of vehicle control at 0.1 µM (MGL) [%] | 2-AG accumulation, % of vehicle control at 10 µM (MGL) [%] | inhibition in vivo at 30 mg/kg [2, 6] [%] | 2-AG accumulation, % of vehicle control at 0.01 µM (MGL; compound 0.01 μM, read-out: Rat Brain 2AG % VehCntrl (%) @ 0.01 μM) [%]
O=C(c1cscn1)N1CCN(C2CN(C(=O)c3sc4cc(Br)ccc4c3Cl)C2)CC1 [Cpd 333, 1-{1-[(6-Bromo-3-chloro-1-benzothiophen-2-yl)carbonyl]azetidin-3-yl}-4-(1,3-thiazol-4-ylcarbonyl)piperazine] | 3.9 | 16.2 | 291 | 27.7 |  |  |  |  | 
O=C(c1ccc(Oc2ncc(C(F)(F)F)cc2Cl)cc1)N1CC(N2CCN(C(=O)c3nccs3)CC2)C1 [Cpd 663] |  | 11 | 588 | 33.9 | 20 |  |  |  | 
O=C(c1ccccc1)N1CCN(C2CN(C(=O)c3ccc(-c4ccc(Cl)c(Cl)c4)cc3)C2)CC1 [Cpd 39, 1-{1-[(3′,4′-Dichlorobiphenyl-4-yl)carbonyl]azetidin-3-yl}-4-(phenylcarbonyl)piperazine] |  | 14.7 | 168 | 39.1 | 25 | 173 | 277 | 39.7 | 
O=C(c1nccs1)N1CCN(C2CN(C(=O)c3sc4c(F)c(C(F)(F)F)ccc4c3Cl)C2)CC1 [Cpd 650] |  | 6 | 960 | 29.9 |  |  |  |  | 
O=C(c1cscn1)N1CCN(C2CN(C(=O)c3ccc(-c4ccccc4)cc3F)C2)CC1 [Cpd 1108, 1-{1-[(3-Fluorobiphenyl-4-yl)carbonyl]azetidin-3-yl}-4-(1,3-thiazol-4-ylcarbonyl)piperazine] |  | 14 | 204 | 84.9 | 63 | 117 | 456 | 99.2 | 
O=C(c1ccc2c(ccn2-c2ccc(F)c(F)c2)c1)N1CC(N2CCN(C(=O)c3ccc[nH]3)CC2)C1 [Cpd 1366, 1-(3,4-Difluorophenyl)-5-({3-[4-(1H-pyrrol-2-ylcarbonyl)piperazin-1-yl]azetidin-1-yl}carbonyl)-1H-indole] |  | < 5 | 586 | 47.1 | 12 |  |  |  | 
O=C(c1cc2cc(C(F)(F)F)ccc2s1)N1CC(N2CCN(C(=O)c3nccs3)CC2)C1 [Cpd 316, 1-(1,3-Thiazol-2-ylcarbonyl)-4-(1-{[5-(trifluoromethyl)-1-benzothiophen-2-yl]carbonyl}azetidin-3-yl)piperazine] | 16.5 | < 5 | 760 | 69.3 |  | 265 | 694 | 70.8 | 243
Cc1cc(-c2cccc(C(F)(F)F)c2)ccc1C(=O)N1CC(N2CCN(C(=O)c3cscn3)CC2)C1 [Cpd 240, 1-(1-{[3-Methyl-3′-(trifluoromethyl)biphenyl-4-yl]carbonyl}azetidin-3-yl)-4-(1,3-thiazol-4-ylcarbonyl)piperazine] | 23.2 | 50.8 | 538 | 43 |  | 184 | 639 | 44.4 | 
O=C(c1ccccc1)N1CCN(C2CN(C(=O)c3ccc(-c4ccc(Cl)c(C(F)(F)F)c4)cc3)C2)CC1 [Cpd 232, 1-(1-{[4′-Chloro-3′-(trifluoromethyl)biphenyl-4-yl]carbonyl}azetidin-3-yl)-4-(phenylcarbonyl)piperazine] |  | 82.9 | 152 | 9.6 |  |  | 427 | 8 | 
